Measured values taken from patent US9045445B2, “Glycine transporter-1 inhibitors, methods of making them, and uses thereof” (Albany Molecular Research, Inc., priority 2010, dated 2015).
Structures can show the parent of a compound that is named as a salt.

Each compound was assayed against T1, glycine transporter-1 (GlyT-1) (Homo sapiens, UniProt P48067) (assay: [14C]glycine uptake assay in JAR cells endogenously expressing GlyT-1 (scintillation proximity)). Conditions: JAR cells, [14C]glycine 5 μM, 3 hour incubation; read-out: GlyT-1 IC50.
T1 construct: JAR cells (ATCC#HTB-144), which endogenously express GlyT-1; host or cells: JAR human choriocarcinoma cells
T1 sequence (P48067 1-706): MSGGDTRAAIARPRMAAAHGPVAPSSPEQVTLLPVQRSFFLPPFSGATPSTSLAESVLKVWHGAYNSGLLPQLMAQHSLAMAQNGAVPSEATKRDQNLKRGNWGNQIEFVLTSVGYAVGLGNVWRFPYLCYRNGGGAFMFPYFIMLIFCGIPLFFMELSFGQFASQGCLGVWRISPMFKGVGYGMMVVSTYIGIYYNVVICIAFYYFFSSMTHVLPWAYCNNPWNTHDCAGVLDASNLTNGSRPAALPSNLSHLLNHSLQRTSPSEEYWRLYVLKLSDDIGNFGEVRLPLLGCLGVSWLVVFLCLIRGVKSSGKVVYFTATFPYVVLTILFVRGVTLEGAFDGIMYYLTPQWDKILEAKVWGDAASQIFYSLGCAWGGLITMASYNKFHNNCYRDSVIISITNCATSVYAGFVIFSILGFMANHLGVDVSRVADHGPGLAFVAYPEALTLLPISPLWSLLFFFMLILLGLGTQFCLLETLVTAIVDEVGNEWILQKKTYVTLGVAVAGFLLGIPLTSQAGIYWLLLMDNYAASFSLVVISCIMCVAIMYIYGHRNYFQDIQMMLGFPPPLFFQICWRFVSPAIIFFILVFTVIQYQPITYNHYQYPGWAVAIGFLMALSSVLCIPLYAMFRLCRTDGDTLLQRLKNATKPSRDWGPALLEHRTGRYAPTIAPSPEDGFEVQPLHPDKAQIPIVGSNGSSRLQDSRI
Format: cell-based
Protocol: The inhibitory activity of compounds of the invention against the glycine transporter-1 (GlyT-1) can be determined by the following scintillation proximity assay. The potency of each compound was assessed in inhibiting the uptake of radiolabeled glycine ([^14C]glycine) using the human choriocarcinoma cell line, JAR cells (ATCC#HTB-144), which endogenously express GlyT-1. In brief, 50,000 JARS cells were plated per well of tissue culture treated 96-well Cytostar-T plate (PerkinElmer) in RPMI media supplemented with 10% heat inactivated FBS and allowed to attach overnight at 37° C. and 5% CO2. Compounds were serially diluted 3-fold in DMSO generating a nine (9) data point response curve for each compound. Two replicates were performed per determination. The compounds were then diluted into Uptake Buffer (10 mM Hepes, 120 mM NaCl, 2 mM KCl, 1 mM CaCl2 and 1 mM MgCl2, 5 mM Alanine, pH 7.4) with a final DMSO concentration of 0.75% (v/v). Following the overnight incubation, the media was replaced with Uptake Buffer in the presence or absence of diluted compound and pre-incubated at room temperature for 10 minutes prior to the addition of [^14C]glycine at a final concentration of 5 μM. Following a 3 hour incubation period at 37° C. and 5% CO2, the plates were sealed and placed at room temperature in the dark for 15 minutes prior to quantification of incorporated radioactivity using a MicroBeta Trilux scintillation plate reader (PerkinElmer). Data were fit into a four-parameter model to determine the inhibitor concentration at half-maximal response (IC50). The assay window was established by control wells incubated with [^14C]glycine in the presence or absence of 10 mM non-labeled glycine. A dose response curve for a synthesized reference standard was generated on every plate as a positive control.

Compared with `CCCS(=O)(=O)N1CCN(C2(CNC(=O)c3c(F)cccc3C(F)(F)F)CCC(F)(F)CC2)CC1` [compound 149, N-((4,4-Difluoro-1-(4-(propylsulfonyl)piperazin-1-yl)cyclohexyl)methyl)-2-fluoro-6-(trifluoromethyl)benzamide Hydrochloride], `CCCS(=O)(=O)N1CCN(C2(CNC(=O)c3c(F)ccc(C(F)(F)F)c3F)CCC(F)(F)CC2)CC1` [compound 262, N-((4,4-Difluoro-1-(4-(propylsulfonyl)piperazin-1-yl)cyclohexyl)methyl)-2,6-difluoro-3-(trifluoromethyl)benzamide Hydrochloride] is 3.2-fold higher in IC50: 69 nM for the first, 223 nM for the second. The first is the more potent here.

Going from `Cn1cc(S(=O)(=O)N2CCN(C3(CNC(=O)c4c(Cl)cccc4Cl)CCC(F)(F)CC3)CC2)nn1` [compound 190, 2,6-Dichloro-N-((4,4-difluoro-1-(4-(1-methyl-1H-l,2,3-triazol-4-ylsulfonyl)piperazin-1-yl)cyclohexyl)methyl) benzamide Hydrochloride] to `Cn1cc(S(=O)(=O)N2CCN(C3(CNC(=O)c4cc(F)c(Cl)cc4F)CCC(F)(F)CC3)CC2)nn1` [compound 238, 4-Chloro-N-((4,4-difluoro-1-(4-(1-methyl-1H-1,2,3-triazol-4-ylsulfonyl)piperazin-1-yl)cyclohexyl)methyl)-2,5-difluorobenzamide Hydrochloride], the IC50 rises from 1 nM to 12 nM (12-fold).

`CCCS(=O)(=O)N1CCN(C2(CNC(=O)c3ccccc3-c3ccccc3)CCCCC2)CC1` [compound 34, N-((1-(4-(Propylsulfonyl)piperazin-1-yl)cyclohexyl)methyl) biphenyl-2-carboxamide Hydrochloride] and `CCCS(=O)(=O)N1CCN(C2(CNC(=O)c3ccccc3OC)CCCCC2)CC1` [compound 40, 2-Methoxy-N-((1-(4-(propylsulfonyl)piperazin-1-yl)cyclohexyl)methyl) benzamide Hydrochloride] are within 1.5-fold of each other in IC50: 646 nM for the first, 629 nM for the second.

First: CCCS(=O)(=O)N1CCN(C2(CNC(=O)c3ccc(OC)cc3)CCCCCC2)CC1 [compound 67, 4-Methoxy-N-((1-(4-(propylsulfonyl)piperazin-1-yl)cycloheptyl)methyl) benzamide Hydrochloride]
Second: CCCS(=O)(=O)N1CCN(C2(CNC(=O)c3c(F)cccc3F)CCCCC2)CC1 [compound 16, 2,6-Difluoro-N-((1-(4-(propylsulfonyl)piperazin-1-yl)cyclohexyl)methyl) benzamide Hydrochloride]
The IC50 of the first is 38-fold higher: 863 nM for the first, 23 nM for the second. The second is the more potent here.

First: Cc1cc(Cl)ccc1C(=O)NCC1(N2CCN(S(=O)(=O)c3cn(C)cn3)CC2)CCC(F)(F)CC1 [compound 168, 4-Chloro-N-((4,4-difluoro-1-(4-(1-methyl-1H-imidazol-4-ylsulfonyl)piperazin-1-yl)cyclohexyl)methyl)-2-methylbenzamide Hydrochloride]
Second: CCCS(=O)(=O)N1CCN(C2(CNC(=O)c3c(C)cccc3Cl)CCC(F)(F)CC2)CC1 [compound 155, 2-Chloro-N-((4,4-difluoro-1-(4-(propylsulfonyl)piperazin-1-yl)cyclohexyl)methyl)-6-methylbenzamide Hydrochloride]
The IC50 of the first is 1.7-fold lower: 15 nM for the first, 26 nM for the second.

Going from `CC1CN(S(=O)(=O)c2cn(C)nn2)C(C)CN1C1(CNC(=O)c2ccc(C(F)(F)F)cc2C(F)(F)F)CCC(F)(F)CC1` (stereo not shown) [compound 237, N-((1-(2,5-Dimethyl-4-(1-methyl-1H-1,2,3-triazol-4-ylsulfonyl)piperazin-1-yl)-4,4-difluorocyclohexyl)methyl)-2,4-bis(trifluoromethyl) benzamide Hydrochloride] to `CCCS(=O)(=O)N1CCN(C2(CNC(=O)c3c(C)cccc3C)CCC(F)(F)CC2)CC1` [compound 146, N-((4,4-Difluoro-1-(4-(propylsulfonyl)piperazin-1-yl)cyclohexyl)methyl)-2,6-dimethylbenzamide Hydrochloride], the IC50 rises from 2 nM to 30 nM (15-fold).

`CCCS(=O)(=O)N1CCN(C2(CNC(=O)c3c(N)cccc3Cl)CCC2)CC1` [compound 78, 2-Amino-6-chloro-N-((1-(4-(propylsulfonyl)piperazin-1-yl)cyclobutyl)methyl) benzamide Hydrochloride] gave an IC50 of 2440 nM.
